According to article PMC4818757, “Small molecule inhibitors of the Dishevelled‐CXXC5 interaction are new drug candidates for bone anabolic osteoporosis therapy” (EMBO Molecular Medicine, 2016):

Experiments:
[1] = system: ovariectomized (OVX) mice; test: OVX-induced osteoporosis mouse model; format: in vivo
Protocol: Figure 6 Effects of KY‐02327 on OVX‐induced osteoporosis model mice • A–H Vehicle or 20 mg of KY‐02327 per kg of animal body weight (mpk) was orally administered or 0.06 mpk of the N‐terminal fragment of PTH (amino acids 1‐34) was subcutaneously injected into the Sham‐operated (Sham) or ovariectomized (OVX) mice on 5 sequential days per week for 4 weeks (n = 4). After calcein injection, the prepared femoral sections of the OVX mice were examined under fluorescence microscope to visualize integrated calcein (A, green, arrows). Nuclei were counterstained with DAPI (A, blue). Scale bars, 100 μm. Osteoblast numbers (B) and calcein double‐labeled surfaces (C) were measured in the femoral sections. The mouse femurs were analyzed using micro‐CT, and BMD (D) and BV/TV (E) were calculated from the micro‐CT data. The three‐dimensional images of femoral trabecular bone were reconstructed (F), and trabecular number (G) and trabecular separation (H) were calculated. Data Information: The data are the mean ± s.d. (error bars). Significance was assessed using Kruskal–Wallis test.
This animal study was approved by the Institutional Review Board of Severance Hospital, Yonsei University College of Medicine. The mice were housed in filter‐topped shoebox cages with a computerized environmental control system (MJ LTD, Seoul, Korea). The care and treatment of experimental animals were performed in accordance with institutional guidelines. The room temperature was maintained at 26.5°C with a relative humidity of approximately 40–70%. The mice were given a standard maintenance diet from Dae Han Bio Link (Daejeon, Korea). For OVX mouse experiments, the surgeries were performed with 8‐week‐old female BL6 mice under anesthesia with avertin (2,2,2‐tribromoethanol; Worthington Biochemical, Freehold, NJ) as described previously (Zahoor et al, 2014). After removing the hair, dorsal incisions were made into the dermal layers above both sides of the ovaries using dissection scissors. The connection between the fallopian tube and the uterine horn was cut, and the ovary was removed. The incision was then sutured with 3 single catgut stitches. Sham mice were used as controls. After 4 weeks, the OVX group was divided into three groups for oral administration of vehicle (saline containing 10% Tween‐60) or 20 mg of KY‐02327 per kg of animal body weight (mpk) of KY‐02327, or for subcutaneous injection of 0.06 mpk of N‐terminal fragment of PTH (amino acids 1–34), which were administered for 5 sequential days per week for 4 weeks. The animals were sacrificed, and the organs were harvested for analysis. For the calcein double‐labeling experiment (Pall et al, 1987), calcein (10 mpk in 2% sodium hydrocarbonate, pH 7.4) was injected twice, on the last day of the 2nd and 3rd week. All the mice were randomly assigned to each groups, and the investigators were blinded to the group allocation during the treatments and experiments.
The mouse femurs were scanned using a micro‐CT system (Skyscan 1072; Skyscan, Aartselaar, Belgium). The scanned image data were reconstructed to create 3D images and analyzed using the CT‐Analyzing Program (Skyscan). For femoral trabecular bone analysis, the femurs were scanned with a voxel size of 10 μm, beginning at the end of the growth plate and extending proximally along the diaphysis, and 80 continuous slices (beginning at 0.1 mm from the most proximal aspect of the growth plate in which both condyles were no longer visible) were selected for analysis.
The femurs of OVX mice and the calvariae of 4‐day‐old mice were fixed in 4% paraformaldehyde in PBS. The bones were then decalcified in 10 mM EDTA and embedded in paraffin. Five‐micrometer tissue sections were deparaffinized in 100% xylene followed by re‐hydration with sequential 100% to 50% ethanol washes. The sections were stained with hematoxylin and eosin (H&E), and light micrographs were captured using a SMZ645 Nikon microscope (Nikon, Tokyo, Japan). […]

[2] = system: mouse embryonic fibroblast (MEF) cells; test: qRT-PCR of pathway-specific target genes in MEF cells (off-target); format: cell-based; conditions: 12 hours
Protocol: To evaluate off‐target effects of KY‐02327, we monitored the transcriptional regulation of target genes of major cell signaling pathways in KY‐02327‐treated mouse embryonic fibroblast (MEF) cells (Appendix Table S2 and Appendix Fig S5). […] However, the target genes of other pathways were unaffected by the treatment of KY‐02327 (Appendix Fig S5B‐J). […]
on mouse embryonic fibroblast cells for 12 hours. The mRNA level of pathway-specific target genes (Appendix Table S2) was measured by quantitative real-time […]
Data Information: The data are the mean ± s.d. (error bars), and significance was assessed using unpaired Student’s t-test. [n =3]

[3] = KY‐02327 20 mpk oral, PTH 0.06 mpk subcutaneous, 4 weeks
[4] = KY‐02327 20 mpk oral, PTH 0.06 mpk subcutaneous, 5 days per week for 4 weeks

Question: With `CCOC(=O)c1cc2cc(O)ccc2n1CC(=O)NCCN1CCCCC1` [KY‐02327] as the compound, how does the “histology of livers, lungs, spleens” value ([1]; 4 weeks treatment, H&E) read?
Answer: No histological abnormalities

Question: What about the “weight of treated mice” value ([1]; 4‐week treatment) of the same compound?
Answer: did not change significantly

Question: What about the “destroyed trabecular bones (3D micro-CT images)” value [1, 3] of the same compound?
Answer: rescued

Question: And the “mineral contents of the bone (BMD), femur, micro‐CT” value [1, 3]?
Answer: significantly increased

Question: And the trabecular bone number [1, 3]?
Answer: increase

Question: And the trabecular separation [1, 3]?
Answer: decrease

Question: What about the “volume of bone (BV/TV)” value ([1]; KY‐02327 20 mpk oral, PTH 0.06 mpk subcutaneous, 4 weeks, vs vehicle) of the same compound?
Answer: increased

Question: What about the “calcein double‐labeled surface” value [1, 4] of the same compound?
Answer: increased

Question: What about the “new bone formation (calcein-labeled) in femur” value [1, 4] of the same compound?
Answer: recovered

Question: What about the number of osteoblasts [1, 4] of the same compound?
Answer: increased

Question: And the “calcein double-labelled surface, fold increase” value ([1]; OVX mice, 20 mpk oral)?
Answer: approximately 2 fold

Question: What about the “number of osteoblasts, fold increase” value ([1]; OVX mice, 20 mpk oral) of the same compound?
Answer: approximately 2 fold

Question: What about the “mRNA levels of Wnt/β‐catenin target genes” value [2] of the same compound?
Answer: significantly increased

Question: What about the “target genes of other pathways (off-target)” value [2] of the same compound?
Answer: unaffected
